# Laboratory results published in patent US20200205399A1, “COMPOSITION FOR CRYOPRESERVATION, METHOD FOR PRODUCING CRYOPRESERVED MATERIAL, CELL PREPARATION, METHOD FOR PRODUCING CELL PREPARATION, AND KIT FOR CRYOPRESERVATION” (TWO CELLS Co., Ltd., priority 2017, published 2020).
# Entries after “also recorded” stand apart in the source; their conditions may differ.
# System: gMSC (registered trademark) 1
# Test: Experimental cryopreservation of gMSC 1 (scaffold-free, three-dimensional mass of mesenchymal stem cells); cell count after thawing
# Type: cell-based, human
# Details: conclusion from gMSC 1 experiments, constituent added to 10% DMSO + basal medium + albumin
# Experimental: Primary cultured human synovium-derived MSCs were obtained through the following steps (1) to (4) or were obtained by shredding a tissue into fragments, immersing them in a culture solution (STK1) in a culture vessel, and allowing outgrowth of cells from the tissue fragments.
# (1) Synovial tissue was taken from a human.
# (2) The obtained synovial tissue was washed with PBS, then the tissue was added to 10 ml of a 0.4% collagenase solution and blended, and allowed to react at 37° C. for 1 to 4 hours.
# (3) The resultant product was subjected to filtering and then centrifugation to recover the synovial tissue.
# (4) Primary culture was carried out in a STK (registered trademark) 1 in accordance with the instructions from the manufacturer of the STK 1.
# The primary cultured cells obtained in the above manner were subcultured and proliferated in a STK (registered trademark) 2 by repeated subculture, in accordance with the instructions from the manufacturer of the STK 2.
# MSCs in a sub-confluent state (5th generation: P5) were washed once with phosphate buffered saline (PBS, calcium-free and magnesium-free, PBS(−), Cell Science & Technology Institute, Inc.), then detached with use of a cell detachment agent TrypLE Select CTS (Thermo Fisher Scientific Inc.), were collected, and suspended in a washing medium (DMEM, Sigma). Then, the cells were transferred to a tube for centrifugation, and subjected to centrifugation at 1500 rpm at room temperature for 5 minutes. The separated single cells were further suspended in a washing medium, and the number of cells was counted using trypan blue staining. The cells were inoculated onto a 6-well plate (SUMITOMO BAKELITE CO., LTD.) containing a STK (registered trademark) 2 at a density of 40×10^4 cells/cm^2, and cultured (high-density culture) in an incubator at 37° C. and 5% CO2 for 7 days. Culture media were replaced three days after the inoculation and five days after the inoculation. […]
row,Compound,"cryopreservative effect on scaffold-free, three-dimensional mass of mesenchymal stem cells"
1,"CCCCC/C=C\C/C=C\CCCCCCCC(=O)O [linoleic acid, Linoleic Acid]",effective; also recorded: greater than the cryopreservative effect achieved by methyl-β-cyclodextrin
2,Phosphatidic acid sodium salt [PA],effective
3,Tween 80 [reference compound],not effective
